Assay: isothermal nanotitration calorimetry, interaction with beta-cyclodextrin
Format: physicochemical
Settings: for strength of interaction with beta-cyclodextrin: adimensional values
From the text: In adimensional values: 1000×10^6 and 737×10^6, respectively (Table 6). [table]

Compound | strength of interaction with beta-cyclodextrin | interaction with beta-cyclodextrin relative to interaction of sodium lauryl sulfate with beta-cyclodextrin (calorimetric analyses)
N=C(NCCCCCCNC(=N)NC(=N)Nc1ccc(Cl)cc1)NC(=N)Nc1ccc(Cl)cc1 [chlorhexidine digluconate, 1,1′-hexamethylene bis(5-(p-chlorophenyl)biguanide)] | 1000×10^6 | about 1000 times
CCCCCCCCCCCCOS(=O)(=O)[O-].[Na+] [sodium lauryl sulfate] | 737×10^6 | 
